Test results published in ChEMBL document CHEMBL1150833, “Five novel highly oxygenated diterpenes of Orthosiphon stamineus from Myanmar” (2001).
Values after ≈ are worked out from the molar mass of the structure shown.

Tests used:
HT-1080 = assay: Antiproliferative activity against human HT1080 cells after 4 days by MTT assay; type: functional; conditions: HT-1080, 96 h, read-out: ED50 (the source's name)
[1] = Antiproliferative activity against mouse Colon 26-L5 cells after 4 days by MTT assay; type: functional; conditions: 96 h, read-out: ED50 (the source's name)

Row | Compound | EC50 (HT-1080) [µg/mL] | EC50 [1] [µg/mL]
1 | C=C[C@@]1(C)CC(=O)[C@H]2[C@](O)(C1=O)[C@H](O)C[C@H]1C(C)(C)[C@H](OC(=O)c3ccccc3)[C@H](OC(C)=O)[C@H](OC(=O)c3ccccc3)[C@@]12C [ORTHOSIPHOL N] | 18.6 (≈ 29.4 µM) | 35.1 (≈ 55.5 µM)
2 | COc1ccc(-c2cc(=O)c3c(OC)c(OC)c(OC)cc3o2)cc1 | 4.5 (≈ 13.1 µM) | 8.1 (≈ 23.7 µM)
3 | C=C[C@@]1(C)C[C@@H](OC(=O)c2ccccc2)[C@H]2[C@](O)(C1=O)[C@H](OC(C)=O)C[C@H]1C(C)(C)[C@H](OC(C)=O)[C@H](O)[C@H](OC(=O)c3ccccc3)[C@@]12C [ORTHOSIPHOL B] | 57.9 (≈ 85.6 µM) | 28.1 (≈ 41.5 µM)
4 | C=C/C(=C\[C@H]1C(=O)[C@H](OC(C)=O)C[C@H]2C(C)(C)[C@H](O)[C@H](OC(C)=O)[C@H](OC(=O)c3ccccc3)[C@]12C)C(C)=O [NORSTAMINONE A] | 23.2 (≈ 42.9 µM) | 12.8 (≈ 23.7 µM)
5 | COc1ccc(-c2cc(=O)c3c(O)c(OC)c(OC)cc3o2)cc1O [EUPATORIN] | 8.8 (≈ 25.6 µM) | 3.7 (≈ 10.7 µM)
6 | O=c1[nH]cc(F)c(=O)[nH]1 [FLUOROURACIL] | 0.48 (≈ 3.69 µM) | 0.015 (≈ 0.115 µM)
7 | COc1ccc(-c2cc(=O)c3c(O)c(O)c(OC)cc3o2)cc1 [LADANEIN] | 3 (≈ 9.55 µM) | 2.3 (≈ 7.32 µM)
8 | C=C[C@@]1(C)C[C@@H](OC(=O)c2ccccc2)[C@H]2[C@](O)(C1=O)[C@H](OC(C)=O)C[C@H]1C(C)(C)[C@H](O)[C@H](O)[C@H](OC(=O)c3ccccc3)[C@@]12C [ORTHOSIPHOL K] | 21.8 (≈ 34.3 µM) | 13.8 (≈ 21.7 µM)
9 | C=C[C@H]1[C@@H](OC(=O)c2ccccc2)[C@H]2[C@](O)(C(=O)[C@@]1(C)O)[C@H](OC(C)=O)C[C@H]1C(C)(C)[C@H](O)[C@H](OC(C)=O)[C@H](OC(=O)c3ccccc3)[C@@]12C [NEOORTHOSIPHOL A] | 96.3 (≈ 139 µM) | 38.8 (≈ 56 µM)
10 | C=C[C@]1(C)C(=O)[C@]2(O)[C@H](OC(C)=O)C[C@H]3C(C)(C)[C@H](O)[C@H](OC(C)=O)[C@H](OC(=O)c4ccccc4)[C@]3(C)[C@H]2[C@H](OC(=O)c2ccccc2)[C@@H]1O [ORTHOSIPHOL L] | 20.6 (≈ 29.7 µM) | 24.7 (≈ 35.7 µM)
11 | C=C[C@@]1(C)C[C@@H](OC(=O)c2ccccc2)[C@H]2[C@](O)(C1=O)[C@H](OC(C)=O)C[C@H]1C(C)(C)[C@H](O)[C@H](OC(C)=O)[C@H](OC(=O)c3ccccc3)[C@@]12C [ORTHOSIPHOL A] | > 100 | 63.1 (≈ 93.2 µM)
12 | COc1cc(/C=C/C(=O)OCCc2ccc(O)cc2)ccc1O | 47.1 (≈ 150 µM) | 33.7 (≈ 107 µM)
13 | COc1ccc(-c2cc(=O)c3cc(OC)c(OC)c(OC)c3o2)cc1OC | 74.8 (≈ 201 µM) | 31.4 (≈ 84.3 µM)
14 | C=C[C@@]1(C)CC(=O)[C@H]2[C@](O)(C1=O)[C@H](OC(C)=O)C[C@H]1C(C)(C)[C@H](O)[C@H](OC(C)=O)[C@H](OC(=O)c3ccccc3)[C@@]12C [ORTHOSIPHOL M] | 81.7 (≈ 143 µM) | 31.3 (≈ 54.9 µM)
